Assay: Thermodynamic stability of the solid forms of compound (I)
Type: physicochemical
Conditions: compared with the other solid forms of compound (I)

thermodynamic stability among solid forms: thermodynamically stable form
SMILES: CC(C)(O)c1cc2nn(CCS(C)(=O)=O)cc2cc1NC(=O)c1cccc(C(F)(F)F)n1 [Polymorphic form B, N-{6-(2-Hydroxypropan-2-yl)-2-[2-(methylsulphonyl)ethyl]-2H-indazol-5-yl}-6-(trifluoromethyl)pyridine-2-carboxamide]

Reference: patent publication US10759758B2, “Polymorphic form of N-{6-(hydroxypropan-2-yl)-2-[2-(methylsulphonyl)ethyl]-2H-indazol-5-yl}-6-(trifluoromethyl)pyridine-2-carboxamide” (Bayer Pharma Aktiengesellschaft, priority 2016, dated 2020)
